{
  "source": "patent US9790188B2",
  "about": "“Benzimidazole derivatives and uses thereof” (Whitehead Institute for Biomedical Research, priority 2013, dated 2017)",
  "key": {"[1]": {"tested_on": "WT yeast", "experiment": "Growth inhibition of wild-type yeast (dose-response)", "assay_type": "cell-based", "settings": "at concentrations higher than those that rescue α-syn toxicity", "description": "Source plates were assembled in 96 well plates using multichannel pipettes to dilute rows in 1.6-fold serial dilutions of CSMGal. […] For α-syn, the final starting OD600 was 0.02. Drug concentration ranges varied depending on efficacy, growth inhibition, and solubility in media. A Tecan EvoFreedom liquid handling robot was then used to transfer culture from 96 to 384 well format with each well being represented four times. Final well volume was 35 μL. Plates were then incubated in humidified containers at 30° C. for either 24 or 40 hours. Plates were then read with a Tecan Saphire plate reader at OD600.\nRaw OD600 values were transformed to “Relative Growth” in WT cells or “% Maximum Rescue” in α-syn experiments. In WT cells, the well background was subtracted and all values were then normalized to 100% for the untreated condition. In α-syn rescue experiments, the well background was subtracted and the maximum rescue in the particular experiment was normalized to 100%."}, "[2]": {"tested_on": "WT yeast", "experiment": "Viable cells recovered after prolonged treatment at growth inhibitory concentrations"}, "[3]": {"tested_on": "nitrosative stress", "experiment": "Nitrosative stress (protein nitration, 3-NT antibody) in yeast synucleinopathy model", "assay_type": "cell-based"}, "[4]": {"tested_on": "reactive oxygen species", "experiment": "ROS detection (CM-H2DCFDA, flow cytometry) in α-syn yeast", "assay_type": "cell-based", "settings": "10 μM, HiTox strain", "description": "The generation of reactive oxygen species (ROS) detected from yeast expressing untagged α-syn using the ROS sensing dye, CM-H2DCFDA (Invitrogen), as previously described (9). Briefly, log phase raffinose cultures of α-syn (non-GFP tagged) were induced with galactose with or without ABI1 for 6 hours. At this time, the dye was added for an additional 30 minutes. Cells were then analyzed using an EasyCyte flow cytometer (Guava Technologies)."}, "[5]": {"tested_on": "TH-positive (dopaminergic) neurons", "experiment": "Primary ventral mesencephalic cultures transduced with A53T α-syn", "assay_type": "cell-based, rat", "settings": "A53T α-syn adenovirus, 0.1 μM", "description": "Experiments aimed at monitoring dopaminergic cell viability in primary mesencephalic cultures were performed as described previously (7-9). Briefly, cells obtained from the midbrains of E17 rat embryos were plated at a density of 2.18×10^3 cells per mm^2 on a 48-well plate. Four days after plating, the cells were treated with cytosine arabinofuranoside (20 μM) to restrict the growth of glial cells. Three days later (7 days in vitro), the cells were transduced with an adenovirus encoding A53T α-syn, generated using the Invitrogen ViraPower Adenoviral Expression System (38), at a multiplicity of infection (MOI) of 15 in the absence or presence of ABI1 (0.1 μM). After a 72-h transduction period, the media was replaced with fresh media with or without ABI1 for an additional 24 h. […] MAP2- and TH-immunoreactive neurons were counted by an investigator blinded to the identity of the treatment conditions in at least ten randomly chosen observation fields (encompassing ˜800-1600 MAP2^+ neurons) per treatment using a Nikon TE2000-U inverted fluorescence microscope with a 20× objective. Relative dopaminergic cell viability was calculated as the percentage of MAP2-positive neurons that were also TH-positive and normalized by the value determined for control cells (set to 100%). […]"}, "[6]": {"tested_on": "Cpy", "experiment": "CPY western blot, ER-to-Golgi trafficking in α-syn yeast", "assay_type": "cell-based", "settings": "α-syn-expressing yeast", "description": "CPY western blots were performed using culture conditions as described above. An anti-Cpy antibody (Invitrogen, A6428) was used at 1:5,000. Post-ER:ER ratios were quantitated using an IRDye800 secondary antibody (Li-Cor Odyssey, Rockland Immunochemicals) and scanned with the Li-Cor Odyssey imaging system. Significance was determined using a one-way ANOVA and Tukey's test of significance."}, "[7]": {"tested_on": "Bap2", "experiment": "Western blot of proteinA-tagged Bap2", "assay_type": "cell-based, yeast", "settings": "Rsp5-dependent"}, "[8]": {"target": "Rsp5p (Saccharomyces cerevisiae, UniProt P39940)", "sequence (P39940 whole entry)": "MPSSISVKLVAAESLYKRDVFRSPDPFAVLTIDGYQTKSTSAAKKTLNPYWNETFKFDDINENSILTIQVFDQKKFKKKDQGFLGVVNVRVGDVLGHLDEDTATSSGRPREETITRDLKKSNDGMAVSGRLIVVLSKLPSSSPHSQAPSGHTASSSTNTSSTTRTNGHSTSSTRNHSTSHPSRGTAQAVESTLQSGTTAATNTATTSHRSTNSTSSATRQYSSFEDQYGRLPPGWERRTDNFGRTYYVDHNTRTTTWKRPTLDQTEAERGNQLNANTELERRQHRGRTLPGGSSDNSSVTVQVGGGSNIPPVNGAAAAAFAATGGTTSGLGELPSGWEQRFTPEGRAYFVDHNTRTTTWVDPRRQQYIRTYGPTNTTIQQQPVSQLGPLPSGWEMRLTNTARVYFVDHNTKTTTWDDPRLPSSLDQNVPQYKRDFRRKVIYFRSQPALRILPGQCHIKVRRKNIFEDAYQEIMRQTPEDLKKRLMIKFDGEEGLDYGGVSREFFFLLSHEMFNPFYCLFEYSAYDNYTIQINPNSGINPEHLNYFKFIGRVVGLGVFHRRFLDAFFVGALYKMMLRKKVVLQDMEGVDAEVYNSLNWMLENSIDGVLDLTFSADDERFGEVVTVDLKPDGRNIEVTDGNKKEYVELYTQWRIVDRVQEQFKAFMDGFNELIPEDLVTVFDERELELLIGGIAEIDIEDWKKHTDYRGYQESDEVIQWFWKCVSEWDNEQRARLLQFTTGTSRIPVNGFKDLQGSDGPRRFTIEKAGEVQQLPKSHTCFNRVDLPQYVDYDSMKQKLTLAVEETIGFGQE", "settings": "pers. comm.; cited from earlier work"}, "[9]": {"tested_on": "htt72Q", "experiment": "Yeast growth rescue, htt72Q proteinopathy model", "assay_type": "cell-based", "description": "(§1) (A) Structure of lead compound ABI. (B) Dose-response curves showing the relative rescue of ABI (log2, μM) in five yeast proteinopathy models. Rescue is relative to a positive control compound as determined by growth (OD600). (C) Localization of α-syn-GFP in strains with increasing toxicity: NoTox, InTox, HiTox and HiTox treated with 10 μM ABI. […] (E) (Left panel) Western blot of α-syn-GFP in NoTox, InTox, and HiTox strains with anti-α-syn antibody. (Right panel) Quantitation of western blot (α-syn relative to total protein quantitated from a Coomassie gel and normalized to 100% for HiTo). **: P<0.01; and ***: P<0.001, according to one-way ANOVA and a Tukey's test.\n(§2) Yeast strains expressing toxic proteins have been described previously (6, 9, 33, 34) (Table 1). All strains have either single or multiple inserts for galactose-inducible expression. In addition, all stains have either deletions of the Δpdr1::KanMX and Δpdr3::KanMX or Δpdr5::KanMX to reduce efflux of compounds and required compound dosing. Yeast were cultured in complete synthetic media (CSM) and an appropriate dropout (minus HIS or URA) to maintain plasmids if required. […]\n(§3) Starting cultures for all dose-response assays were established as described above. […] Plates were then read with a Tecan Saphire plate reader at OD600."}, "[10]": {"tested_on": "Aβ peptide", "experiment": "Yeast growth rescue, Aβ peptide proteinopathy model", "assay_type": "cell-based", "description": "as §1, §2, §3"}},
  "note": "“Also recorded” adds a separate entry of the source.",
  "data": [
    {"smiles": "Cc1cccc(-n2cnc3cc(C(=O)NCc4ccccc4Cl)ccc32)c1", "note": "[ABI, N-(2-chlorobenzyl)-1-(m-tolyl)-1H-benzo[d]imidazole-5-carboxamide]", "values": [
      {"measurement": "growth inhibition of wild-type cells", "setting": "[1]", "value": "inhibited the growth of wild-type cells"},
      {"measurement": "viability of cells", "setting": "[2]", "value": "retained full viability"},
      {"measurement": "nitrosative stress", "setting": "[3]", "value": "prevented the generation of highly localized nitrosative stress"},
      {"measurement": "generation of reactive oxygen species (% of ROS-positive cells)", "setting": "[4]", "value": "completely abolished; also recorded: reduced the % of ROS-positive cells"},
      {"measurement": "retraction of neuronal processes / neurite length", "setting": "[5]", "value": "markedly reduced the retraction of neuronal processes; also recorded: reversed"},
      {"measurement": "survival of TH-positive neurons (% of MAP2-positive neurons)", "setting": "[5]", "value": "largely restored the survival; also recorded: reversed"},
      {"measurement": "ER-to-Golgi trafficking (Cpy) / forward protein trafficking through the ER", "setting": "[6]", "value": "directly ameliorated an ER-Golgi trafficking block"},
      {"measurement": "Bap2 levels / degradation", "setting": "[7]", "value": "promotes Bap2 degradation"},
      {"measurement": "ubiquitination of recombinant Rsp5p in vitro", "setting": "[8]", "value": "did not enhance ubiquitination"},
      {"measurement": "efficacy against htt72Q", "setting": "[9]", "value": "not, however, effective"},
      {"measurement": "efficacy against Aβ peptide", "setting": "[10]", "value": "not, however, effective"}
    ]}
  ]
}
